For assay [1], the target named is recombinant RORγ Ligand Binding Domain (LBD) (Homo sapiens (Human), UniProt P51449). Put plainly: Radio-Ligand RORγ Binding Assay (Assay 1). To be noted: cell-free competition with 25-hydroxy [26,27-3H]-cholesterol, SPA; read-out: RORγ Binding Ki Range*. The procedure: Radio-Ligand ROR ? Binding Assay (Assay 1)
Compounds of the present invention were tested for ability to bind to ROR ? in a cell-free competition assay with commercially available radio-ligand (RL), 25-hydroxy [26,27-^3H]-cholesterol (PerkinElmer, Cat. # NET674250UC), for a ligand binding site on a recombinant ROR ? Ligand Binding Domain (LBD) protein expressed as a 6×His-Glutathione-S-Transferase (GST) fusion. […] The plate was shaken at 700 rpm for 20 min and incubated for 10 min at rt, after which 40 μL of poly-Lys YSi SPA beads (PerkinElmer, Cat. # RPNQ0010) were added to achieve 50 μg of the beads per well. The plate was incubated on an orbital shaker for 20 min and then for 10 min without agitation at rt. SPA signal for tritium beta radiation was registered on PerkinElmer Microbeta plate reader. […] The percent inhibition vs. concentration data were fit into a four-parameter model, and IC50 values were calculated from the fit as the concentrations corresponding to the inflection points on the dose-response curves.

The target of assay [2] is full-length RORγt in Jurkat cells (Homo sapiens (Human), UniProt P51449). The assay is described as follows: RORγt 5×RORE Assay in Jurkat Cells (Assay 2). It is filed as cell-based. To be noted: Nanoluc luciferase reporter, 16-18 hrs, read-out: RORγt5X IC50 Range*. Here is the method: [formula] ROR ? t 5×RORE Assay in Jurkat Cells (Assay 2)
Chain of full-length RORγt in Jurkat cells (P51449 other isoform, or with tags, fused parts or gaps): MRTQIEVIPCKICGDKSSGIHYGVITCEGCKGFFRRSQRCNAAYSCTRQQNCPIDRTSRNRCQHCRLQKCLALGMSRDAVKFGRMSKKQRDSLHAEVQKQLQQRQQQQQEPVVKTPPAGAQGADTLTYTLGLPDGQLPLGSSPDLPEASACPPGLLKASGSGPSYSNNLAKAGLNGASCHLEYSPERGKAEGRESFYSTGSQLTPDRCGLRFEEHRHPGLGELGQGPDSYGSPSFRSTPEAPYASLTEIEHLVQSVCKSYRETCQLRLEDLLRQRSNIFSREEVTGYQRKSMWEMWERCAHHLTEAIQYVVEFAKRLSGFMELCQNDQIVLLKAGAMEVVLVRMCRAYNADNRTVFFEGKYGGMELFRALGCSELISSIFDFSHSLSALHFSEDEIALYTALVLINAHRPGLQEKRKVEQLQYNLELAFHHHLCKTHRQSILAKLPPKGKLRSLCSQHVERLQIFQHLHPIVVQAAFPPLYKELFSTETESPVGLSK
Compounds of the present invention were tested for ROR ? inverse agonist activity in a cell-based, transcriptional activity assay. […] (Promega, Cat. # N1021) using KpnI and HindIII restriction sites. […] Luciferase activity in the conditioned supernatants was determined with NanoGlo® assay reagents (Promega, Cat.# N1130).

Usually Ki stands for the equilibrium dissociation constant of an inhibitor or competing ligand from its target. A word on the IC50: it is the midpoint of a concentration-inhibition curve.

Chain of recombinant RORγ Ligand Binding Domain (LBD) (P51449 269-508): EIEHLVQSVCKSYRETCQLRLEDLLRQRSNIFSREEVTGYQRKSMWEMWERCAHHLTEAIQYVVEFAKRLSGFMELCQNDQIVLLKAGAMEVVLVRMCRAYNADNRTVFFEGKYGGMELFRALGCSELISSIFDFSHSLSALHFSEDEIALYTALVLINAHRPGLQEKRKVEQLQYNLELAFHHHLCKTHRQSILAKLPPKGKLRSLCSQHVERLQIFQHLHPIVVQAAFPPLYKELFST

In the case of `CC(C)[C@H]1c2ncc(C(=O)NCc3ccnn3C)cc2CN1Cc1ccc(C(F)(F)F)cc1` [Compound 73], the Ki in assay [1] is above 1000 nM.
On to `CC(C)[C@H]1c2ncc(C(=O)NCc3cnn(C)c3)cc2CN1Cc1ccc(C(F)(F)F)cc1` [Compound 76], for which, in assay [1], the Ki was in the range of 100 to 1000 nM.
For `CCS(=O)(=O)n1cc(CNC(=O)c2cnc3c(c2)CN(Cc2ccc(C(F)(F)F)cc2)[C@H]3C(C)C)cn1` [Compound 133], in assay [1], the Ki is below 100 nM. The IC50 in assay [2] lay within 100 to 1000 nM.

Source of the values: patent US10399976B2, “Dihydropyrrolopyridine inhibitors of ROR-gamma” (Vitae Pharmaceuticals, LLC, priority 2014, dated 2019).
